Results on one molecule are retold here after patent US20050281890A1 (priority 2004, published 2005).

The subject of series [1] is 8×16-mm full-thickness excisional wounds. The settings on record: for wound closure: p<0.05. How it is done: FIG. 3. […] Two 8×16 mm full-thickness excisional wounds (inset) were placed on the dorsal skin of C57BL/6 male mice (8 wk old). […] For determination of surface microflora, wounds (treated with either 1.25 micromole H2O2/wound, open bar, or saline, closed bar) were swabbed (24-48 h post wounding) for 20 sec with an alginate-tipped applicator. Quantitative assessment of surface bacterial load was performed. For deep tissue wound microflora, 48 h after wounding eschar tissue was removed, wound bed tissue underneath eschar was sampled and quantitative assessment of bacterial load was performed. Values shown represent mean±SD of CFU of four observations. C.
Briefly, two 8×16-mm full-thickness excisional wounds (FIG. 3, insets) were placed on the dorsal skin of C57BL/6 male mice (8 weeks old). Each of the two wounds was topically treated either with H2O2 or saline.

The test system of another series is CD31. The settings on record: 1.25 micromole/wound, days 0-4; day 8 post-wounding; vs control. The protocol: (§1) FIG. 4. […] Paired excisional wounds (FIG. 2) were either treated with placebo saline or H2O2 (1.25 micromole/wound, days0-4, once daily). Wound-edge tissue was collected at indicated times after wounding. A. Ribonuclease protection assay (RPA) showing kinetics of angiogenesis-related mRNA expression in a placebo-treated wound. […] C. Blood flow imaging of wounds was performed non-invasively using a Laser Doppler blood flow imaging device. Images reflecting the blood flow (right panel) and a digital photo (region of interest; left panel) from post-heal tissue are shown. Data i.e., mean±SD of the blood flow is presented (bar graph). The mean represents the arithmetic mean of all valid blood flow values for pixels within the region of interest.
(§2) Paired excisional wounds were either treated with placebo saline or H2O2 (1.25 micromole/wound, days 0-4, once daily). Wound-edge tissue was collected at indicated times after wounding.

The next series concerns Flt-1 mRNA. The following applies: 1.25 micromole/wound, once daily, days 0-4; wound-edge tissue. The protocol:
as §1, §2

A further series deals with VEGF mRNA. The settings on record: 1.25 micromole/wound, once daily, days 0-4; wound-edge tissue. The protocol: as §1, §2
The next series has as its system wound blood flow. The following applies: 1.25 micromole/wound, days 0-4, once daily; post-heal tissue; vs placebo saline. The protocol: as §1, §2
Images reflecting the blood flow (right panel) and a digital photo (region of interest; left panel) from post-heal tissue are shown. […] The mean represents the arithmetic mean of all valid blood flow values for pixels within the region of interest.

Series [2] relates to focal adhesion kinase (FAK). The following applies: HMEC-1 microvascular endothelial cells; various doses, 0.1 mM for kinetics.
Protocol: Human microvascular endothelial cells (HMEC-1) were treated with H2O2 for indicated dose and duration. Phosphorylation of FAK was detected using Western blot and phosphorylation site-specific antibodies against FAK. Native FAK or β-actin was blotted to show equal loading. A. Effect of various dose of H2O2 treatment on phosphorylation (Ty 925) state of FAK. B. Kinetics of site-specific activation phophorylation of FAK in HMEC cells following H2O2 (0.1 mM) treatment.
Human microvascular endothelial cells (HMEC-1) were treated with H2O2 for indicated dose and duration. Phosphorylation of FAK was detected using Western blot and phosphorylation site-specific antibodies against FAK. Native FAK or β-actin was blotted to show equal loading.
For series [3], the system named is focal adhesion kinase (FAK). The following applies: wound-edge tissue, 1.25 micromole/wound, 30 minutes after wounding.
Protocol: Human microvascular endothelial cells (HMEC-1) were treated with H2O2 for indicated dose and duration. Phosphorylation of FAK was detected using Western blot and phosphorylation site-specific antibodies against FAK. Native FAK or β-actin was blotted to show equal loading. […] B. Kinetics of site-specific activation phophorylation of FAK in HMEC cells following H2O2 (0.1 mM) treatment. […] Paired excisional wounds (FIG. 2) were either treated with placebo saline or H2O2 (1.25 micromole/wound). Wound-edge tissue was collected 30 min after wounding. FAK phosphorylation in wound edge tissue was determined using Western blot. Data from three animals (#1-#3) are shown.
In FIG. 5C, paired excisional wounds were either treated with placebo saline or H2O2 (1.25 micromole/wound). Wound-edge tissue was collected 30 minutes after wounding. FAK phosphorylation in wound edge tissue was determined using Western blot. Data from three animals (#1-#3) are shown.
The subject of the next series is keratin 14. The following applies: p47phox knockout mice; 1.25 micromoles/wound, days 0-4; day 18 post-wounding, after closure.

Where two headings read alike, the source gives them in different places.

Protocol for keratin 14: Two excisional wounds (FIG. 2) were-laced on the dorsal skin of 8 wk old C57BL/6, MCP-1 or p47phox KO mice. Each of the two wounds was treated with either saline or H2O2 (1.25 micromoles/wound; days 0-4). […] C. […] D. Keratin 14 (green fluorescence) expression in skin of p47phox KO mice harvested from wound sites after closure on day 18 post-wounding.
Briefly, two excisional wounds were placed on the dorsal skin of eight-week-old C57BL/6, MCP-1 or p47^phox knockout mice. Each of the two wounds was treated with either saline or H2O2 (1.25 micromoles/wound; days 0-4).

Take `OO` [H2O2, hydrogen peroxide]: the “tissue damage / survival” value in series [1] (62.5 micromoles/wound (0.025 ml of 7.5% solution), once on day 0) is “caused necrotic tissue damage and severe injury, leading to death of the mice”. In addition, the wound closure result in series [1] (high dose 25 micromoles/wound (0.025 ml of 3% solution), once daily days 0-4, compared to low dose 1.25 micromoles/wound) was “adversely affected closure”; in series [1] (low-dose 1.25 micromoles/wound (0.025 ml of 0.15% solution), topical, once daily, days 0-4, vs placebo saline side), “facilitated closure moderately”. The “vascularization (CD31 stain)” value with CD31 is reported as “better vascularization”. The “wound-induced Flt-1 mRNA expression” value in the series with Flt-1 mRNA is on record as “further augmented”. Moreover, the “wound-induced VEGF mRNA expression” value in the series with VEGF mRNA is recorded as “further augmented”. Also, the blood flow result in the series on wound blood flow is “increased blood flow”. The “phosphorylation of FAK” value in series [2] and in series [3] was “Induced Phosphorylation” each time. In addition, in the series with keratin 14, the “keratin 14 expression” value is listed as “comparable to normal skin”.
